This note sets out measurements from US20120165304A1, “6,7,8,9-Tetrahydro-5H-1,4,7,10a-tetraaza-cyclohept[f]indene derivatives, pharmaceutical compositions containing these compounds, their use and processes for preparing them” (BOEHRINGER INGELHEIM INTERNATIONAL GMBH, priority 2008, published 2012).

human 5-HT2C receptor, sequence (P28335 33-458 I156V/N158S/I160V limits assumed): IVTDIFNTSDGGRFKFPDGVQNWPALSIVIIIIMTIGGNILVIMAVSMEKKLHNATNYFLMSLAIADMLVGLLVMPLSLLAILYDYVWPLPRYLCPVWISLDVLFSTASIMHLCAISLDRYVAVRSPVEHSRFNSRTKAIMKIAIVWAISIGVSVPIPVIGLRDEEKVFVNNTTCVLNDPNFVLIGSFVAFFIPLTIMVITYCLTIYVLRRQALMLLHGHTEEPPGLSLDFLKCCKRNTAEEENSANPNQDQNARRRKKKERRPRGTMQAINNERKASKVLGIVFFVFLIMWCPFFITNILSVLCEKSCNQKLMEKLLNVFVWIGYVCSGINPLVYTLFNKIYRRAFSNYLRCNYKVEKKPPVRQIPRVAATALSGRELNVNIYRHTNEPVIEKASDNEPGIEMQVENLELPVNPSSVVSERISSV

The experiment concerns the target human 5-HT2C receptor (Homo sapiens, UniProt P28335, I156V/I160V/N158S). As to the kind of experiment: cell-based.
A word on the EC50: it is the concentration at which the effect is half-maximal. High values mean lower potency in that assay, low ones higher potency in that assay. The molecule `C#CC1CCN(C(=O)C2CN(c3c4c(nc5ccnn35)CCN(C)CC4)C2)C1` (stereo not shown) [Example 39, (3-Ethynyl-pyrrolidin-1-yl)-[1-(7-methyl-6,7,8,9-tetrahydro-5H-1,4,7,10a-tetraaza-cyclohept[f]inden-10-yl)-azetidin-3-yl]-methanone] yielded an EC50 of 78 nM. This counts as double-digit nanomolar.
On to `CC1CN(C(=O)C2CN(c3c4c(nc5ccnn35)CCNCC4)C2)CCO1` (stereo not shown) [Example 31.34], for which a half-maximal effect (EC50) was put at 91 nM.
`COc1ccc(C)cc1OCC1CN(c2c3c(nc4ccnn24)CCNCC3)C1` [Example 15.7]: the EC50 was 12 nM.
The molecule `OC[C@H]1CCN1c1c2c(nc3ccnn13)CCNCC2` [Example 8.2] registered an EC50 of 105 nM.
For the molecule `CC1CN(C(=O)C2CN(c3c4c(nc5ccnn35)CCNCC4)C2)CC(C)N1C` (stereo not shown) [Example 37.4], the midpoint of the response, the EC50, lay at 4 nM. Against the preceding molecule, the EC50 is about 26-fold lower.
The figure for `O=C(C1CN(c2c3c(nc4ccnn24)CCNCC3)C1)N1CCC2(CCCC2)CC1` [Example 31.41] is 58 nM; for `OC1CCCN(c2c3c(nc4ccnn24)CCNCC3)C1` (stereo not shown) [Example 1.38] it is 1810 nM; for `O=C(NC1CCC(C(F)(F)F)CC1)C1CN(c2c3c(nc4ccnn24)CCNCC3)C1` (stereo not shown) [Example 37.60] it is 49 nM.
In the case of `CC(C)CN1CCN(C(=O)C2CN(c3c4c(nc5ccnn35)CCN(C)CC4)C2)CC1` [Example 36.17], the EC50 was 88 nM. Compared with the last molecule, the EC50 is about 1.8-fold higher.
Molecule `O=C(C1CN(c2c3c(nc4ccnn24)CCNCC3)C1)N1CCCC(F)(F)C1` [Example 31.201] yielded an EC50 of 24 nM.
For the molecule `CC#CCN(CC(C)C)C(=O)C1CN(c2c3c(nc4ccnn24)CCNCC3)C1` [Example 31.104], the EC50 amounted to 215 nM.
Consider `COc1ccc2c(c1)CCN(c1c3c(nc4ccnn14)CCNCC3)C2` [Example 1.23], for which the midpoint of the response, the EC50, lay at 522 nM. Against the preceding molecule, the EC50 is about 2.4-fold higher.
`c1ccc2sc(C3CN(c4c5c(nc6ccnn46)CCNCC5)C3)nc2c1` [Example 12, 10-(3-Benzothiazol-2-yl-azetidin-1-yl)-6,7,8,9-tetrahydro-5H-1,4,7,10a-tetraaza-cyclohepta[f]indene] came in with an EC50 of 253 nM.
For `CCOc1cccc(OC2CN(c3c4c(nc5ccnn35)CCNCC4)C2)c1` [Example 35.27] the value was 93 nM; for `O=C(C1CN(c2c3c(nc4ccnn24)CCNCC3)C1)N1CCCC1` [Example 31.64], 199 nM; for `O=C(C1CN(c2c3c(nc4ccnn24)CCNCC3)C1)N1CCC2(CCOC2)CC1` [Example 31.57], 37 nM.
The molecule `O=C(C1CCCN(c2c3c(nc4ccnn24)CCNCC3)C1)N1CCC(C2CCCCC2)CC1` (stereo not shown) [Example 1.58] yielded an EC50 of 4710 nM.
On to `O=C(C1CN(c2c3c(nc4ccnn24)CCNCC3)C1)N1CCc2cc(Cl)ccc21` [Example 31.147], for which the EC50 was determined as 78 nM. Against the preceding molecule, the EC50 is about 60-fold lower.
As to `COc1ccc(OC2CN(c3c4c(nc5ccnn35)CCNCC4)C2)cc1` [Example 1.10], it took 96 nM to reach a half-maximal effect (EC50).
`CN(Cc1ccc(Cl)cc1)C(=O)C1CN(c2c3c(nc4c(Br)cnn24)CCNCC3)C1` [Example 31.141]: the midpoint of the response, the EC50, lay at 87 nM.
With `O=C1CN(C(=O)C2CN(c3c4c(nc5ccnn35)CCNCC4)C2)CCN1` [Example 37.12], the EC50 worked out at 27 nM.
The figure for `O=C(C1CN(c2c3c(nc4ccnn24)CCNCC3)C1)N1CCC(O)(c2ccc(C(F)(F)F)cc2)CC1` [Example 31.227] is 92 nM.
The figure for `COc1cccc(N(C)C(=O)C2CN(c3c4c(nc5ccnn35)CCNCC4)C2)c1` [Example 31.55] is 600 nM; for `CC(C)N(C)C(=O)C1CN(c2c3c(nc4ccnn24)CCNCC3)C1` [Example 31.6] it is 5940 nM.
`CN(Cc1ccccc1Cl)C(=O)C1CN(c2c3c(nc4ccnn24)CCNCC3)C1` [Example 31.37] came in with an EC50 of 68 nM. Against the preceding molecule, the EC50 is about 87-fold lower.
For the molecule `Cc1ccccc1N1CCN(C(=O)C2CN(c3c4c(nc5ccnn35)CCNCC4)C2)CC1` [Example 37.37], a half-maximal effect (EC50) was put at 9 nM. This EC50 lies about 7.6-fold lower than the previous one.
Turning to `CN1CCc2nc3ccnn3c(N3CC(C(=O)N4CCCNCC4)C3)c2CC1` [Example 36.59], the EC50 was determined as 173 nM.
In turn, `CN(Cc1cc(Cl)cc(Cl)c1)C(=O)C1CN(c2c3c(nc4ccnn24)CCNCC3)C1` [Example 31.165] gave an EC50 of 72 nM.
The figure for `Cc1cnn2c(N3CC(C(=O)N4CCc5ccc(C(F)(F)F)cc54)C3)c3c(nc12)CCNCC3` [Example 31.246] is 266 nM; for `Brc1ccc(OC2CN(c3c4c(nc5ccnn35)CCNCC4)C2)cc1` [Example 35.2] it is 184 nM.
On to `CN(C)[C@H]1CC[C@H](NC(=O)C2CN(c3c4c(nc5ccnn35)CCNCC4)C2)CC1` [Example 37.98], for which it took 25 nM to reach a half-maximal effect (EC50).
The figure for `c1ccc(CC2CN(c3c4c(nc5ccnn35)CCNCC4)C2)cc1` [Example 1.15] is 10 nM; for `C[C@@H](NC(=O)C1CN(c2c3c(nc4ccnn24)CCNCC3)C1)C1CCCCC1` [Example 31.188] it is 101 nM.
For `C[C@@H]1C[C@H](C)CN(C(=O)C2CN(c3c4c(nc5ccnn35)CCN(C)CC4)C2)C1` [Example 36.15] the value was 154 nM.
Molecule `CN(C)CCCN(C)C(=O)C1CN(c2c3c(nc4ccnn24)CCNCC3)C1` [Example 37.41] displayed an EC50 of 8 nM. This EC50 is about 19-fold lower than that of the molecule before.
The figure for `O=C(C1CN(c2c3c(nc4ccnn24)CCNCC3)C1)N1CCCCC(F)(F)C1` [Example 41, (3,3-Difluoro-perhydro-azepin-1-yl)-[1-(6,7,8,9-tetrahydro-5H-1,4,7,10a-tetraaza-cyclohept[f]inden-10-yl)-azetidin-3-yl]-methanone] is 7 nM.
The molecule `O=C(NCCF)C1CN(c2c3c(nc4ccnn24)CCNCC3)C1` [Example 37.107] came in with an EC50 of 91 nM.
`Fc1cccc(OCC2CN(c3c4c(nc5ccnn35)CCNCC4)C2)c1` [Example 15.19] had an EC50 of 21 nM.
Turning to `O=C(NCC(F)(F)F)C1CN(c2c3c(nc4ccnn24)CCNCC3)C1` [Example 37.94], the EC50 was 228 nM. Against the preceding molecule, the EC50 is about 11-fold higher.
The molecule `Cn1c(C2CN(c3c4c(nc5ccnn35)CCNCC4)C2)nc2ccc(F)cc21` [Example 34.4] showed an EC50 of 24 nM.
Take `COc1ccc(OCC2CN(c3c4c(nc5ccnn35)CCNCC4)C2)cc1` [Example 15.3]: the EC50 worked out at 10 nM.
`CC(C)(C)N1CCC2(CCN(C(=O)C3CN(c4c5c(nc6ccnn46)CCNCC5)C3)CC2)C1=O` [Example 31.150] showed an EC50 of 240 nM.
The figure for `CN(Cc1cccc(C(F)(F)F)c1)C(=O)C1CN(c2c3c(nc4ccnn24)CCNCC3)C1` [Example 31.149] is 45 nM.
`CN1CCc2nc3ccnn3c(N3CC(C(=O)NC4CC5CCC(C4)N5C)C3)c2CC1` (stereo not shown) [Example 36.10] came in with an EC50 of 374 nM.
Take `O=C(C1CN(c2c3c(nc4ccnn24)CCNCC3)C1)N1CCOCC1` [Example 31.17]: the midpoint of the response, the EC50, lay at 276 nM.
For `CC1CNCCc2c1nc1ccnn1c2N1CCCCC1` (stereo not shown) [Example 3, 5-Methyl-10-piperidin-1-yl-6,7,8,9-tetrahydro-5H-1,4,7,10a-tetraaza-cyclohepta[f]indene], the EC50 was 1810 nM.
For `C#CC(C)NC(=O)C1CN(c2c3c(nc4ccnn24)CCNCC3)C1` (stereo not shown) [Example 37.109], the EC50 was found to be 79 nM.
The molecule `O=C(C1CN(c2c3c(nc4ccnn24)CCNCC3)C1)N1CCC(c2ccc(C(F)(F)F)cc2)CC1` [Example 31.109] showed an EC50 of 83 nM.
Consider `CCN1CCCC1CNC(=O)C1CN(c2c3c(nc4ccnn24)CCN(C)CC3)C1` (stereo not shown) [Example 36.4], for which a half-maximal response (EC50) required 252 nM.
In turn, `O=C(C1CN(c2c3c(nc4ccnn24)CCNCC3)C1)N1CCCCC1c1cccnc1` (stereo not shown) [Example 31.187] returned an EC50 of 1010 nM. Compared with the last molecule, the EC50 is about 4-fold higher.
Molecule `O=C(NC1CCC1)C1CN(c2c3c(nc4ccnn24)CCNCC3)C1` [Example 37.92] came in with an EC50 of 161 nM.
For `Clc1ccccc1OCC1CN(c2c3c(nc4ccnn24)CCNCC3)C1` [Example 15.6] the value was 5 nM; for `c1ccc(C2CCN(c3c4c(nc5ccnn35)CCNCC4)C2)cc1` (stereo not shown) [Example 1.26], 160 nM; for `Fc1ccc2[nH]c(C3CN(c4c5c(nc6ccnn46)CCNCC5)C3)nc2c1` [Example 34.14], 369 nM.
`O=C(C1CN(c2c3c(nc4ccnn24)CCNCC3)C1)N1CCC(C(F)(F)F)CC1` [Example 31.83] came in with an EC50 of 8 nM.
In turn, `C[C@@H]1CN(C(=O)C2CN(c3c4c(nc5ccnn35)CCNCC4)C2)C[C@H](C)O1` [Example 31.42] returned an EC50 of 37 nM.
Molecule `O=C(C1CN(c2c3c(nc4ccnn24)CCNCC3)C1)N1CCC2(CCCC2)C1` [Example 31.123] returned an EC50 of 9 nM.
In turn, `C#CC1(NC(=O)C2CN(c3c4c(nc5ccnn35)CCNCC4)C2)CCCCC1` [Example 37.79] yielded an EC50 of 62 nM. This EC50 lies about 6.9-fold higher than the previous one.
For `Fc1ccccc1OCC1CN(c2c3c(nc4ccnn24)CCNCC3)C1` [Example 15.2] the value was 3 nM; for `Cc1cnn2c(N3CCC3)c3c(nc12)CCNCC3` [Example 27, 10-Azetidin-1-yl-3-methyl-6,7,8,9-tetrahydro-5H-1,4,7,10a-tetraaza-cyclohepta[f]indene], 49 nM; for `COc1ccccc1N(C)C(=O)C1CN(c2c3c(nc4ccnn24)CCNCC3)C1` [Example 31.38], 790 nM.
Molecule `O=C(C1CN(c2c3c(nc4ccnn24)CCNCC3)C1)N1CCC2(CCCc3ccccc32)C1` (stereo not shown) [Example 31.222] displayed an EC50 of 96 nM.
`COc1ccccc1OCC1CN(c2c3c(nc4ccnn24)CCNCC3)C1` [Example 15.21] registered an EC50 of 29 nM. This EC50 lies about 3.3-fold lower than the previous one.
For `O=C(C1CN(c2c3c(nc4ccnn24)CCNCC3)C1)N1CCc2ccc(C(F)(F)F)cc2C1` [Example 31.107] the value was 52 nM; for `Cc1cc(C#N)cc(C)c1OC1CN(c2c3c(nc4ccnn24)CCNCC3)C1` [Example 35.15], 20 nM; for `CC(=O)NC1CCN(C(=O)C2CN(c3c4c(nc5ccnn35)CCNCC4)C2)C1` (stereo not shown) [Example 37.27], 14 nM.
`COc1cc(C)cc(OCC2CN(c3c4c(nc5ccnn35)CCNCC4)C2)c1` [Example 15.22] gave an EC50 of 141 nM.
In turn, `CCCn1c(C2CN(c3c4c(nc5ccnn35)CCNCC4)C2)nc2ccccc21` [Example 34.35] came in with an EC50 of 472 nM.
In turn, `N#Cc1cccc(OC2CN(c3c4c(nc5ccnn35)CCNCC4)C2)c1` [Example 35.4] gave an EC50 of 81 nM.
`O=C(NCC1CCCCC1)C1CN(c2c3c(nc4ccnn24)CCNCC3)C1` [Example 31.225] displayed an EC50 of 111 nM.
